The subject of one assay is Salmonella typhimurium. Description: Antibacterial activity against Salmonella enterica subsp. enterica serovar Typhimurium up to 200 ug/ml by agar well diffusion method. In kind it is functional, organism-based.
The next assay relates to Bacillus subtilis. Description: Antibacterial activity against Bacillus subtilis up to 200 ug/ml by agar well diffusion method. In kind it is functional, organism-based. Background: Agar diffusion results depend on both activity and mobility in agar.
The test system of assay [1] is Staphylococcus aureus. Description: Antibacterial activity against Staphylococcus aureus up to 200 ug/ml by agar well diffusion method. In kind it is functional, organism-based.
Assay [2] relates to THP-1. Briefly: Anti-inflammatory activity in Homo sapiens (human) THP1 cells assessed as inhibition of LPS-induced IL-6 production preincubated at 10 uM for 30 min before LPS treatment measured after 24 hr by ELISA. The class given is functional. A general note: ELISA stands for enzyme-linked immunosorbent assay.
The subject of assay [3] is Candida albicans. Description: Antifungal activity against Candida albicans up to 200 ug/ml by agar well diffusion method. The class given is functional, organism-based.
Assay [4] concerns Fusarium solani. Briefly: Antifungal activity against Fusarium solani up to 200 ug/ml by agar well diffusion method. The class given is functional, organism-based.
Assay [5] concerns THP-1. Description: Anti-inflammatory activity in Homo sapiens (human) THP1 cells assessed as inhibition of LPS-induced TNF-alpha production preincubated at 10 uM for 30 min before LPS treatment measured after 24 hr by ELISA. In kind it is functional.
A further assay has as its system Escherichia coli. Description: Antibacterial activity against Escherichia coli up to 200 ug/ml by agar well diffusion method. The class given is functional, organism-based.
For the next assay, the system named is Aspergillus niger. Description: Antifungal activity against Aspergillus niger up to 200 ug/ml by agar well diffusion method. The class given is functional, organism-based.
Another assay deals with Aspergillus flavus. Description: Antifungal activity against Aspergillus flavus up to 200 ug/ml by agar well diffusion method. The class given is functional, organism-based.
In assay [6] the test system is Staphylococcus aureus. Description: Antibacterial activity against Staphylococcus aureus by agar well diffusion method. The class given is functional.
In assay [7] the test system is Fusarium solani. Description: Antifungal activity against Fusarium solani by agar well diffusion method. In kind it is functional.
The test system of assay [8] is THP-1. Briefly: Anti-inflammatory activity in Homo sapiens (human) THP1 cells assessed as inhibition of LPS-induced IL-6 production preincubated at 1 uM for 30 min before LPS treatment measured after 24 hr by ELISA. In kind it is functional.
The test system of assay [9] is THP-1. Description: Anti-inflammatory activity in Homo sapiens (human) THP1 cells assessed as inhibition of LPS-induced TNF-alpha production preincubated at 1 uM for 30 min before LPS treatment measured after 24 hr by ELISA. In kind it is functional.
The subject of assay [10] is Candida albicans. Briefly: Antifungal activity against Candida albicans by agar well diffusion method. In kind it is functional.

In brackets after ≈: the same amount, converted by molar mass. Activity calls are given as the source filed them. The calls are words filed in the database; no cut-off is given here.

On to `CCCCc1ccc(NC(=S)Nc2ccc(C3NC(=S)NC(C)=C3C(=O)OCC)cc2)cc1` (configuration not stated), for which the result in the assay with Salmonella typhimurium, in the assay with Bacillus subtilis, with Staphylococcus aureus [1], in the assay on Candida albicans [3], in the assay with Fusarium solani [4] and in the assay with Escherichia coli was inactive. Moreover, the outcome in the assay on Aspergillus niger and with Aspergillus flavus was inactive. Further, the inhibition (commonly the drop in the measured response relative to a control, in per cent) at 10 µM with THP-1 [2] is 8%; in the assay on THP-1 [5], 0%.

On to `CCOC(=O)C1=C(C)NC(=S)NC1c1ccc(NC(=S)Nc2ccc(F)c(Cl)c2)cc1` (configuration not stated), for which the result with Salmonella typhimurium, in the assay on Bacillus subtilis, in the assay with Candida albicans [3], with Escherichia coli, with Aspergillus niger and with Aspergillus flavus was inactive. In addition, the MIC (usually the lowest concentration found to suppress growth) was determined as 80 µg/mL (≈ 167 µM) against Staphylococcus aureus [6] and 95 µg/mL (≈ 198 µM) in the assay with Fusarium solani [7]. The inhibition at 10 µM with THP-1 [2] came to 58%; in the assay with THP-1 [5], 0%.

Consider `C[C@@H]1C[C@H]2[C@@H]3CCC4=CC(=O)C=C[C@]4(C)[C@@]3(F)[C@@H](O)C[C@]2(C)[C@@]1(O)C(=O)CO` [DEXAMETHASONE], for which the inhibition at 1 µM came to 84% in the assay on THP-1 [8] and 71% in the assay with THP-1 [9].

In the case of `CCOC(=O)C1=C(C)NC(=S)NC1c1ccc(NC(=S)Nc2ccc(C)c(C)c2)cc1` (configuration not stated), the result in the assay on Salmonella typhimurium, in the assay on Bacillus subtilis, in the assay with Staphylococcus aureus [1], in the assay with Candida albicans [3], in the assay with Fusarium solani [4] and in the assay on Escherichia coli was inactive. The result with Aspergillus niger and with Aspergillus flavus was inactive. Moreover, the inhibition at 10 µM with THP-1 [2] came to 8%; in the assay on THP-1 [5] it was 0%.

For the compound `CCOC(=O)C1=C(C)NC(=S)NC1c1ccc(NC(=S)Nc2ccc(F)c(C)c2)cc1` (configuration not stated), the outcome with Salmonella typhimurium, with Bacillus subtilis, in the assay on Escherichia coli, in the assay on Aspergillus niger and in the assay with Aspergillus flavus was inactive. In addition, the figures for the MIC against Staphylococcus aureus [6], against Fusarium solani [7] and against Candida albicans [10] were 80 µg/mL (≈ 174 µM), 95 µg/mL (≈ 207 µM) and 95 µg/mL (≈ 207 µM), respectively. Also, the inhibition at 10 µM in the assay with THP-1 [2] is 27%; in the assay with THP-1 [5] it was 0%.

The record behind these values is ChEMBL document CHEMBL3045793, “The synthesis, anti-inflammatory and antimicrobial activity evaluation of novel thioanalogs of 3,4-dihydrothiopyrimidin-2(1H)-one derivatives of N-aryl urea” (2012).
